How the values were obtained:
Experiment in all cases: relative viability (nuclei count vs DMSO), 5 days (fraction); higher = more cells survive
A-427 = tested on: A-427
Method in brief: (§1)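 Each reported value is a median over duplicate plates. It expresses relative viability: treated-well nuclei count divided by vehicle-well nuclei count. Lung cancer cell lines in 1536-well plates were dosed by pin tool a day after seeding, alone with one drug or with a fixed anchor-drug dose plus five library-drug doses (not always all listed) in √10 steps, and nuclei were counted after 5 days.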

COR-L 105 = tested on: COR-L 105
Method in brief: as §1

ChaGo-K-1 = tested on: ChaGo-K-1
Method in brief: as §1

EKVX = tested on: EKVX
Method in brief: as §1

EMC-BAC-2 = tested on: EMC-BAC-2
Method in brief: as §1

EPLC-272H = tested on: EPLC-272H
Method in brief: as §1

HARA = tested on: HARA
Method in brief: as §1

HCC-44 = tested on: HCC-44
Method in brief: as §1

LK-2 = tested on: LK-2
Method in brief: as §1

LU99A = tested on: LU99A
Method in brief: as §1

NCI-H1650 = tested on: NCI-H1650
Method in brief: as §1

NCI-H1734 = tested on: NCI-H1734
Method in brief: as §1

NCI-H1755 = tested on: NCI-H1755
Method in brief: as §1

NCI-H1792 = tested on: NCI-H1792
Method in brief: as §1

NCI-H1993 = tested on: NCI-H1993
Method in brief: as §1

NCI-H2405 = tested on: NCI-H2405
Method in brief: as §1

NCI-H358 = tested on: NCI-H358
Method in brief: as §1

NCI-H460 = tested on: NCI-H460
Method in brief: as §1

NCI-H522 = tested on: NCI-H522
Method in brief: as §1

NCI-H596 = tested on: NCI-H596
Method in brief: as §1

NCI-H647 = tested on: NCI-H647
Method in brief: as §1

RERF-LC-KJ = tested on: RERF-LC-KJ
Method in brief: as §1

SW 900 = tested on: SW 900
Method in brief: as §1

Cc1cn(-c2cc(NC(=O)c3ccc(C)c(Nc4nccc(-c5cccnc5)n4)c3)cc(C(F)(F)F)c2)cn1 [Nilotinib] + CCNC(=O)c1noc(-c2cc(C(C)C)c(O)cc2O)c1-c1ccc(CN2CCOCC2)cc1 [Luminespib] (partner 0.01 µM)
relative viability (A-427; first compound 0.001 µM): 0.98 | relative viability (A-427; first compound 0.003162 µM): 0.948 | relative viability (A-427; first compound 0.03162 µM): 0.724 | relative viability (A-427; first compound 0.1 µM): 0.336 | relative viability (COR-L 105; first compound 0.001 µM): 0.764 | relative viability (COR-L 105; first compound 0.003162 µM): 0.711 | relative viability (COR-L 105; first compound 0.01 µM): 0.75 | relative viability (COR-L 105; first compound 0.03162 µM): 0.698 | relative viability (COR-L 105; first compound 0.1 µM): 0.853 | relative viability (ChaGo-K-1; first compound 0.001 µM): 0.416 | relative viability (ChaGo-K-1; first compound 0.003162 µM): 0.48 | relative viability (ChaGo-K-1; first compound 0.01 µM): 1.01 | relative viability (ChaGo-K-1; first compound 0.03162 µM): 0.531 | relative viability (ChaGo-K-1; first compound 0.1 µM): 0.666 | relative viability (EKVX; first compound 0.001 µM): 0.839 | relative viability (EKVX; first compound 0.003162 µM): 0.959 | relative viability (EKVX; first compound 0.01 µM): 1.09 | relative viability (EKVX; first compound 0.03162 µM): 0.88 | relative viability (EKVX; first compound 0.1 µM): 0.955 | relative viability (EMC-BAC-2; first compound 0.001 µM): 1.09 | relative viability (EMC-BAC-2; first compound 0.003162 µM): 1.36 | relative viability (EMC-BAC-2; first compound 0.01 µM): 1.22 | relative viability (EMC-BAC-2; first compound 0.03162 µM): 1.01 | relative viability (EMC-BAC-2; first compound 0.1 µM): 1.11 | relative viability (EPLC-272H; first compound 0.001 µM): 0.134 | relative viability (EPLC-272H; first compound 0.003162 µM): 0.205 | relative viability (EPLC-272H; first compound 0.01 µM): 0.277 | relative viability (EPLC-272H; first compound 0.03162 µM): 0.265 | relative viability (EPLC-272H; first compound 0.1 µM): 0.175 | relative viability (HARA; first compound 0.001 µM): 0.569 | relative viability (HARA; first compound 0.003162 µM): 1.24 | relative viability (HARA; first compound 0.01 µM): 1.14 | relative viability (HARA; first compound 0.03162 µM): 0.842 | relative viability (HARA; first compound 0.1 µM): 0.482 | relative viability (HCC-44; first compound 0.001 µM): 0.845 | relative viability (HCC-44; first compound 0.003162 µM): 1.12 | relative viability (HCC-44; first compound 0.01 µM): 1.14 | relative viability (HCC-44; first compound 0.03162 µM): 0.943 | relative viability (HCC-44; first compound 0.1 µM): 0.833 | relative viability (LK-2; first compound 0.003162 µM): 0.139 | relative viability (LK-2; first compound 0.01 µM): 0.207 | relative viability (LK-2; first compound 0.03162 µM): 0.196 | relative viability (LK-2; first compound 0.1 µM): 0.182 | relative viability (LU99A; first compound 0.001 µM): 0.227 | relative viability (LU99A; first compound 0.01 µM): 0.274 | relative viability (LU99A; first compound 0.03162 µM): 0.219 | relative viability (LU99A; first compound 0.1 µM): 0.213 | relative viability (NCI-H1650; first compound 0.001 µM): 0.208 | relative viability (NCI-H1650; first compound 0.003162 µM): 0.203 | relative viability (NCI-H1650; first compound 0.01 µM): 0.197 | relative viability (NCI-H1650; first compound 0.03162 µM): 0.221 | relative viability (NCI-H1650; first compound 0.1 µM): 0.192 | relative viability (NCI-H1734; first compound 0.001 µM): 0.174 | relative viability (NCI-H1734; first compound 0.003162 µM): 0.168 | relative viability (NCI-H1734; first compound 0.01 µM): 0.208 | relative viability (NCI-H1734; first compound 0.03162 µM): 0.183 | relative viability (NCI-H1734; first compound 0.1 µM): 0.169 | relative viability (NCI-H1755; first compound 0.001 µM): 0.651 | relative viability (NCI-H1755; first compound 0.003162 µM): 0.418 | relative viability (NCI-H1755; first compound 0.01 µM): 0.396 | relative viability (NCI-H1755; first compound 0.03162 µM): 0.632 | relative viability (NCI-H1755; first compound 0.1 µM): 0.376 | relative viability (NCI-H1792; first compound 0.003162 µM): 0.417 | relative viability (NCI-H1792; first compound 0.01 µM): 0.545 | relative viability (NCI-H1792; first compound 0.1 µM): 0.266 | relative viability (NCI-H1993; first compound 0.001 µM): 0.928 | relative viability (NCI-H1993; first compound 0.003162 µM): 0.456 | relative viability (NCI-H1993; first compound 0.01 µM): 0.912 | relative viability (NCI-H1993; first compound 0.03162 µM): 0.773 | relative viability (NCI-H1993; first compound 0.1 µM): 0.765 | relative viability (NCI-H2405; first compound 0.001 µM): 0.76 | relative viability (NCI-H2405; first compound 0.003162 µM): 0.575 | relative viability (NCI-H2405; first compound 0.01 µM): 0.756 | relative viability (NCI-H2405; first compound 0.03162 µM): 0.448 | relative viability (NCI-H2405; first compound 0.1 µM): 0.658 | relative viability (NCI-H358; first compound 0.001 µM): 0.286 | relative viability (NCI-H358; first compound 0.003162 µM): 0.311 | relative viability (NCI-H358; first compound 0.01 µM): 0.43 | relative viability (NCI-H358; first compound 0.03162 µM): 0.188 | relative viability (NCI-H460; first compound 0.001 µM): 0.0351 | relative viability (NCI-H460; first compound 0.003162 µM): 0.0386 | relative viability (NCI-H460; first compound 0.01 µM): 0.0279 | relative viability (NCI-H460; first compound 0.03162 µM): 0.0273 | relative viability (NCI-H460; first compound 0.1 µM): 0.0271 | relative viability (NCI-H522; first compound 0.001 µM): 1.11 | relative viability (NCI-H522; first compound 0.003162 µM): 1.13 | relative viability (NCI-H522; first compound 0.01 µM): 1.35 | relative viability (NCI-H522; first compound 0.03162 µM): 1.07 | relative viability (NCI-H522; first compound 0.1 µM): 1.15 | relative viability (NCI-H596; first compound 0.001 µM): 1.16 | relative viability (NCI-H596; first compound 0.003162 µM): 1.05 | relative viability (NCI-H596; first compound 0.01 µM): 1.01 | relative viability (NCI-H596; first compound 0.03162 µM): 0.655 | relative viability (NCI-H596; first compound 0.1 µM): 0.833 | relative viability (NCI-H647; first compound 0.001 µM): 0.228 | relative viability (NCI-H647; first compound 0.003162 µM): 0.194 | relative viability (NCI-H647; first compound 0.01 µM): 0.194 | relative viability (NCI-H647; first compound 0.03162 µM): 0.129 | relative viability (NCI-H647; first compound 0.1 µM): 0.161 | relative viability (RERF-LC-KJ; first compound 0.001 µM): 1.3 | relative viability (RERF-LC-KJ; first compound 0.003162 µM): 1.47 | relative viability (RERF-LC-KJ; first compound 0.01 µM): 1.34 | relative viability (RERF-LC-KJ; first compound 0.03162 µM): 0.946 | relative viability (RERF-LC-KJ; first compound 0.1 µM): 1.22 | relative viability (SW 900; first compound 0.001 µM): 0.177 | relative viability (SW 900; first compound 0.003162 µM): 0.176 | relative viability (SW 900; first compound 0.01 µM): 0.164 | relative viability (SW 900; first compound 0.03162 µM): 0.186 | relative viability (SW 900; first compound 0.1 µM): 0.198
